Assay [1] relates to A549 cells. The assay is described as follows: A549 proliferation (viability) assay, Cell Titer Fluor, 72 hours. The assay is classed as cell-based. Particulars: Homo sapiens. The essentials: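 1000 A549 cells/well, RPMI 1640/10% dialyzed FBS, 24 h attach; compound 72 h, 0.5% DMSO, 37 °C/5% CO2; Cell Titer Fluor fluorescence; EC50 via 4-parameter logistic.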
In assay [2] the target is T1, GLS1 (purified recombinant human GAC) (Homo sapiens, UniProt O94925).
T1 sequence (O94925 55-598 isoform O94925-3 limits assumed): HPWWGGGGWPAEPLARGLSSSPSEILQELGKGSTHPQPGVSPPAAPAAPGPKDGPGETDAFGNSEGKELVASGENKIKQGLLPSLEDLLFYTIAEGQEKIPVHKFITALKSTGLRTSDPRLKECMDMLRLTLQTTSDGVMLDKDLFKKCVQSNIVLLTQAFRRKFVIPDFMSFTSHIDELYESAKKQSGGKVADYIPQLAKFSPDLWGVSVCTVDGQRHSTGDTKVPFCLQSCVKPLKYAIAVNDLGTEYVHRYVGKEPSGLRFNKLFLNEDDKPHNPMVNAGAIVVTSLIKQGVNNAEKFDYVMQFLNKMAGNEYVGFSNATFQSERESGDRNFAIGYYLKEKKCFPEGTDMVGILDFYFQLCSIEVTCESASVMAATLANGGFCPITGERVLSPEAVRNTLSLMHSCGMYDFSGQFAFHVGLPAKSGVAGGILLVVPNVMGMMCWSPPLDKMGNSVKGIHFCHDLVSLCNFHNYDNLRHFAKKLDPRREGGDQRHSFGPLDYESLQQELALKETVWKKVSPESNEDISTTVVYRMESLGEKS
As to the kind of experiment: GLS1 enzymatic activity assay (dual-coupled, Amplex UltraRed/resorufin). The assay is classed as biochemical. The essentials:
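Recombinant human GAC (2 nM) preincubated with 50 mM potassium phosphate, then inhibitor (10 min each, RT); 1 mM glutamine, pH 7.4 Hepes buffer, 1% DMSO. Glutamate coupled via glutamate oxidase/HRP to resorufin (Ex 530/Em 590), kinetic or 20-min endpoint; IC50 by four-parameter logistic fit.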

Bounds are passed on as bounds.

On to `O=C(Cc1ncc(Cl)cc1F)Nc1ccn(CCC(F)Cn2cc(C(=O)NCc3cccc(OC(F)(F)F)c3)nn2)c(=O)c1` (stereo not drawn) [Example 243, 1-(4-{4-[2-(5-chloro-3-fluoropyridin-2-yl)acetamido]-2-oxo-1,2-dihydropyridin-1-yl}-2-fluorobutyl)-N-{[3-(trifluoromethoxy)phenyl]methyl}-1H-1,2,3-triazole-4-carboxamide], for which the EC50 in assay [1] lay within 0.1 to 0.5 µM. Moreover, the IC50 in assay [2] is less than 0.1 µM.
In turn, `Cc1ccc(CNC(=O)c2cn(CCCCn3ccc(NC(=O)OC(C)(C)C)cc3=O)nn2)cn1` [Example 143, tert-butyl N-{1-[4-(4-{[(6-methylpyridin-3-yl)methyl]carbamoyl}-1H-1,2,3-triazol-1-yl)butyl]-2-oxo-1,2-dihydropyridin-4-yl}carbamate] came in with an EC50 in assay [1] of 0.5 to 5 µM. Further, the IC50 in assay [2] is 0.1 to 0.5 µM.
In assay [1], `O=C(CC1CCCC1)Nc1ccn(CCCCc2nnc(NC(=O)NCc3ccccn3)s2)c(=O)c1F` [Example 131, 2-cyclopentyl-N-(3-fluoro-2-oxo-1-(4-(5-(3-(pyridin-2-ylmethyl)ureido)-1,3,4-thiadiazol-2-yl)butyl)-1,2-dihydropyridin-4-yl)acetamide] gave a 50% effective concentration (EC50) of 0.5 to 5 µM. Besides, in assay [2], the IC50 was less than 0.1 µM.
The matching figures for `C[C@H](C(=O)Nc1ccn(CCC(F)Cn2cc(C(=O)NCc3cc(C(F)(F)F)ccn3)nn2)c(=O)c1F)c1ccccc1` (stereo partly drawn) [Example 343, 1-(2-fluoro-4-{3-fluoro-2-oxo-4-[(2S) 2-phenylpropanamido]-1,2-dihydropyridin-1-yl}butyl)-N-{[4-(trifluoromethyl)pyridin-2-yl]methyl}-1H-1,2,3-triazole-4-carboxamide]: less than 0.1 µM and less than 0.1 µM.
Regarding `O=C(Cc1cccc(OC(F)(F)F)c1)Nc1ccc(CCCCn2ccc(NC(=O)Cc3cccnc3)nc2=O)nn1` [Example 116, N-[6-(4-{2-oxo-4-[2-(pyridin-3-yl)acetamido]-1,2-dihydropyrimidin-1-yl}butyl)pyridazin-3-yl]-2-[3-(trifluoromethoxy)phenyl]acetamide], the EC50 in assay [1] is less than 0.1 µM. In addition, the 50% inhibitory concentration (IC50) in assay [2] was less than 0.1 µM.
In assay [1], `Cc1ccc(CNC(=O)c2nnc(CCCCn3ccc(NC(=O)CC4CCCCC4)cc3=O)s2)cn1` [Example 443, 5-{4-[4-(2-cyclohexylacetamido)-2-oxo-1,2-dihydropyridin-1-yl]butyl}-N-[(6-methylpyridin-3-yl)methyl]-1,3,4-thiadiazole-2-carboxamide] returned an EC50 of less than 0.1 µM. For the same compound, the IC50 in assay [2] was less than 0.1 µM.
Consider `O=C(CC1CCN(CC(F)F)CC1)Nc1ccn(CCC(F)Cn2cc(C(=O)NCc3cccc(OC(F)(F)F)c3)nn2)c(=O)c1` (stereo not drawn) [Example 242, 1-[4-(4-{2-[1-(2,2-difluoroethyl)piperidin-4-yl]acetamido}-2-oxo-1,2-dihydropyridin-1-yl)-2-fluorobutyl]-N-{[3-(trifluoromethoxy)phenyl]methyl}-1H-1,2,3-triazole-4-carboxamide], for which the EC50 in assay [1] fell in the range of 0.1 to 0.5 µM. The IC50 in assay [2] was less than 0.1 µM.
Compound `CC(C(=O)Nc1ccn(CCC(F)Cn2cc(C(=O)NCc3cc(C(F)(F)F)ccn3)nn2)c(=O)c1F)N1CCCCC1` (stereo not drawn) [Example 345, 1-(2-fluoro-4-{3-fluoro-2-oxo-4-[2-(piperidin-1-yl)propanamido]-1,2-dihydropyridin-1-yl}butyl)-N-{[4-(trifluoromethyl)pyridin-2-yl]methyl}-1H-1,2,3-triazole-4-carboxamide] had a concentration giving a half-maximal response (EC50) in assay [1] of less than 0.1 µM. Besides, the IC50 in assay [2] was in the range of 0.1 to 0.5 µM.
`CO[C@@H](C(=O)Nc1ccn(CCC(F)Cn2cc(C(=O)NCc3cccc(OC(F)(F)F)c3)nn2)c(=O)c1F)c1ccccc1` (stereo partly drawn) [Example 284, 1-(2-fluoro-4-{3-fluoro-4-[(2R)-2-methoxy-2-phenylacetamido]-2-oxo-1,2-dihydropyridin-1-yl}butyl)-N-{[3-(trifluoromethoxy)phenyl]methyl}-1H-1,2,3-triazole-4-carboxamide] returned an EC50 in assay [1] of less than 0.1 µM. For the same compound, the IC50 in assay [2] is less than 0.1 µM.
The compound `Cc1ccc(CNC(=O)c2cn(CC(F)CCn3ccc(NC(=O)CC4CCOCC4)cc3=O)nn2)cn1` (stereo not drawn) [Example 197, 1-(2-fluoro-4-{4-[2-(oxan-4-yl)acetamido]-2-oxo-1,2-dihydropyridin-1-yl}butyl)-N-[(6-methylpyridin-3-yl)methyl]-1H-1,2,3-triazole-4-carboxamide] registered a concentration for a half-maximal effect (EC50) in assay [1] of 0.5 to 5 µM. In addition, the IC50 in assay [2] was less than 0.1 µM.
Take `COCCNC(=O)c1nnc(CCCCn2ccc(NC(=O)Cc3cccc(OC(F)(F)F)c3)cc2=O)s1` [Example 450, N-(2-methoxyethyl)-5-[4-(2-oxo-4-{2-[3-(trifluoro-methoxy)phenyl]acetamido}-1,2-dihydropyridin-1-yl)butyl]-1,3,4-thiadiazole-2-carboxamide]: the EC50 in assay [1] lay within 0.5 to 5 µM. The IC50 in assay [2] was in the range of 0.1 to 0.5 µM.
On the same counts, the results for `O=C(CN1CCCC(F)(F)C1)Nc1ccn(CCC(F)Cn2cc(C(=O)NCc3cccc(OC(F)(F)F)c3)nn2)c(=O)c1` (stereo not drawn) [Example 274, 1-(4-{4-[2-(3,3-difluoropiperidin-1-yl)acetamido]-2-oxo-1,2-dihydropyridin-1-yl}-2-fluorobutyl)-N-{[3-(trifluoromethoxy)phenyl]methyl}-1H-1,2,3-triazole-4-carboxamide] are less than 0.1 µM and less than 0.1 µM.
For `Nc1ccn(CCCCn2cc(C(=O)NCc3cccc(OC(F)(F)F)c3)nn2)c(=O)c1` [Example 4, 1-(4-(4-Amino-2-oxopyridin-1(2H)-yl)butyl)-N-(3-(trifluoromethoxy)benzyl)-1H-1,2,3-triazole-4-carboxamide], the EC50 in assay [1] is greater than 5 µM. The half-maximal inhibitory concentration (IC50) in assay [2] is 0.5 to 5 µM.
On to `O=C(Cc1cccc(OC(F)(F)F)c1)Nc1ccc(CCCCn2ccc(NC(=O)CCN3CCCC3)nc2=O)nn1` [Example 109, N-{2-oxo-1-[4-(6-{2-[3-(trifluoromethoxy)phenyl]acetamido}pyridazin-3-yl)butyl]-1,2-dihydropyrimidin-4-yl}-3-(pyrrolidin-1-yl)propanamide], for which the concentration for a half-maximal effect (EC50) in assay [1] lay within 0.5 to 5 µM. The IC50 in assay [2] was 0.1 to 0.5 µM.
`CC(C)CC(=O)Nc1ccn(CCCCn2cc(C(=O)NCc3cccnc3)nn2)c(=O)c1` [Example 37, 1-{4-[4-(3-methylbutanamido)-2-oxo-1,2-dihydropyridin-1-yl]butyl}-N-(pyridin-3-ylmethyl)-1H-1,2,3-triazole-4-carboxamide]: the EC50 in assay [1] was greater than 5 µM. In addition, the IC50 in assay [2] is 0.5 to 5 µM.
In turn, `Cc1ccc(CNC(=O)c2nnc(CCCCn3ccc(NC(=O)C(=O)N4CCCCC4)c(F)c3=O)s2)cn1` [Example 463, 5-(4-{3-fluoro-2-oxo-4-[2-oxo-2-(piperidin-1-yl)acetamido]-1,2-dihydropyridin-1-yl}butyl)-N-[(6-methylpyridin-3-yl)methyl]-1,3,4-thiadiazole-2-carboxamide] returned an EC50 in assay [1] of 0.1 to 0.5 µM. Moreover, the IC50 in assay [2] lay within 0.1 to 0.5 µM.
Turning to `O=C(NCc1cccc(OC(F)(F)F)c1)c1cn(CC(F)CCn2ccc(COc3cccc(OC(F)(F)F)c3)cc2=O)nn1` (stereo not drawn) [Example 476, 1-(2-fluoro-4-{2-oxo-4-[3-(trifluoromethoxy)phenoxymethyl]-1,2-dihydropyridin-1-yl}butyl)-N-{[3-(trifluoromethoxy)phenyl]methyl}-1H-1,2,3-triazole-4-carboxamide], the EC50 in assay [1] was 0.5 to 5 µM. The IC50 in assay [2] was less than 0.1 µM.
In turn, `O=C(Cc1ccccn1)Nc1ccn(CCCCn2cc(C(=O)NCc3cccc(OC(F)(F)F)c3)nn2)c(=O)c1` [Example 6, 1-(4-(2-oxo-4-(2-(pyridin-2-yl)acetamido)pyridin-1 (2H)-yl)butyl)-N-(3-(trifluoromethoxy)benzyl)-1H-1,2,3-triazole-4-carboxamide] displayed an EC50 in assay [1] of 0.5 to 5 µM. In assay [2], the IC50 is less than 0.1 µM.
The compound `COCCOC(=O)Nc1ccn(CCCCc2ccc(NC(=O)Cc3cccc(OC(F)(F)F)c3)nn2)c(=O)n1` [Example 112, 2-methoxyethyl N-{2-oxo-1-[4-(6-{2-[3-(trifluoro-methoxy)phenyl]acetamido}pyridazin-3-yl)butyl]-1,2-dihydropyrimidin-4-yl}carbamate] showed an EC50 in assay [1] of 0.1 to 0.5 µM. For the same compound, in assay [2], the IC50 was less than 0.1 µM.
In turn, `O=C(Cc1ccccc1)Nc1ccn(CCCCCc2nnc(NC(=O)Cc3ccccc3)s2)c(=O)n1` [Example 74, N-(2-oxo-1-{5-[5-(2-phenylacetamido)-1,3,4-thiadiazol-2-yl]pentyl}-1,2-dihydropyrimidin-4-yl)-2-phenylacetamide] displayed an EC50 in assay [1] greater than 5 µM. The IC50 in assay [2] was in the range of 0.5 to 5 µM.
In assay [1], `CC(C)(C)OC(=O)N1CCC(CC(=O)Nc2ccn(CC(F)CCn3cc(C(=O)NCc4cccc(OC(F)(F)F)c4)nn3)c(=O)c2F)CC1` (stereo not drawn) [Example 314, tert-butyl 4-{[(3-fluoro-1-{2-fluoro-4-[4-({[3-(trifluoro-methoxy)phenyl]methyl}carbamoyl)-1H-1,2,3-triazol-1-yl]butyl}-2-oxo-1,2-dihydropyridin-4-yl)carbamoyl]methyl}piperidine-1-carboxylate] had an EC50 of 0.1 to 0.5 µM. The IC50 in assay [2] fell in the range of 0.5 to 5 µM.

Usually EC50 stands for the concentration giving half of the maximal effect. For orientation: IC50 means the concentration needed to halve the response being measured.

Values taken from patent US20160002204A1 (Board of Regents, The University of Texas System, priority 2014, published 2016).
